Molecules are shown by their SMILES.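 Five compound concentrations were applied to cells in 96-well plates for 48 hours; endpoints were derived by simple linear interpolation of the resulting dose-response curve. At the GI50, growth is halved.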 Active and inactive are the calls of the source. Rule as the data show it: active = GI50 up to about 1.1 µM and inactive = higher. Where only a bound is given, the exact number is not on record here.

Results on 14 compounds are retold here after ChEMBL document CHEMBL1201862, “PubChem BioAssay data set” (2004).

Among the test systems are SK-OV-3; KM12; IGROV-1; OVCAR-8; NCI-H460; HOP-92; U-251; CAKI-1; NCI-H226; UACC-257; SF-268; SF-539; COLO 205; A549; LOX IMVI.
Common to all, as to test: growth of human tumour cells (NCI), 48 h

`Cc1cc(N(CCC#N)CCC#N)ccc1/C=C1\N=C(c2cc([N+](=O)[O-])ccc2Cl)N(c2cccc(Cl)c2)C1=O`: the GI50 with SK-OV-3, with KM12, in the experiment on IGROV-1, in the experiment on OVCAR-8, in the experiment on NCI-H460 and in the experiment on HOP-92 was > 100 µM (inactive) in each case. Further, the GI50 was > 100 µM (inactive) in the experiment with U-251; 3.08 µM (inactive) with CAKI-1; > 100 µM (inactive) in the experiment with NCI-H226; > 100 µM (inactive) with UACC-257; > 100 µM (inactive) in the experiment on SF-268; > 100 µM (inactive) with SF-539. Also, the GI50 with COLO 205 is 87.7 µM (inactive); in the experiment on A549 it was > 100 µM (inactive).
For `O=C1[C@@H]2C(c3ccccc3F)=NO[C@@H]2C(=O)N1c1ccc(Cc2ccc(N3C(=O)[C@H]4C(c5ccccc5F)=NO[C@H]4C3=O)cc2)cc1`, the GI50 is > 100 µM (inactive) in the experiment on SK-OV-3; > 100 µM (inactive) in the experiment on KM12; > 100 µM (inactive) in the experiment with IGROV-1; > 100 µM (inactive) with OVCAR-8; > 100 µM (inactive) in the experiment with NCI-H460; 34.4 µM (inactive) in the experiment with HOP-92. Besides, the GI50 in the experiment with U-251, in the experiment on CAKI-1, in the experiment on NCI-H226, in the experiment on UACC-257, with SF-268 and with SF-539 was > 100 µM (inactive) throughout. For the same compound, the GI50 in the experiment on COLO 205, in the experiment with LOX IMVI and in the experiment with A549 was > 100 µM (inactive) in each case.
Regarding `O=C(O)c1[nH]c(C(=O)O)c(CC(F)(F)C(F)(F)C(F)(F)F)c1CC(F)(F)C(F)(F)C(F)(F)F`, the GI50 was > 100 µM (inactive) in the experiment with SK-OV-3; > 100 µM (inactive) in the experiment on KM12; > 100 µM (inactive) with IGROV-1; > 100 µM (inactive) in the experiment with OVCAR-8; > 100 µM (inactive) in the experiment on NCI-H460; 39.9 µM (inactive) in the experiment with HOP-92. Also, the GI50 with U-251, with CAKI-1, in the experiment with NCI-H226, in the experiment with UACC-257, with SF-268 and in the experiment with SF-539 was > 100 µM (inactive) each time. Also, the GI50 in the experiment with COLO 205, in the experiment on LOX IMVI and in the experiment with A549 was > 100 µM (inactive) each time.
With `COC(=O)/C(=C/c1ccc(OC)cc1)NC(=O)c1ccccc1`, the GI50 in the experiment on SK-OV-3, in the experiment with KM12, in the experiment on IGROV-1, with OVCAR-8, with NCI-H460 and in the experiment with HOP-92 was > 100 µM (inactive) in each case. The GI50 in the experiment on U-251, with CAKI-1, in the experiment on NCI-H226, with UACC-257, with SF-268 and in the experiment on SF-539 was > 100 µM (inactive) each time. The GI50 with LOX IMVI and with A549 was > 100 µM (inactive) each time.
Regarding `O=C1/C(=C\c2ccccc2)C2/C(=C\c3ccccc3)C(=O)/C(=C\c3ccccc3)C2/C1=C\c1ccccc1` (stereo unspecified), the GI50 in the experiment with SK-OV-3 is 19.7 µM (inactive); with KM12, 1.42 µM (inactive); in the experiment with IGROV-1 it was 2.01 µM (inactive); in the experiment on OVCAR-8, 0.412 µM (active); in the experiment with NCI-H460 it was 1.9 µM (inactive); with HOP-92 it was 1.69 µM (inactive). Also, the GI50 with U-251 is 1.17 µM (inactive); with CAKI-1 it was 2.67 µM (inactive); in the experiment on UACC-257 it was 1.79 µM (inactive); in the experiment with SF-268, 2.58 µM (inactive); in the experiment on SF-539 it was 2.35 µM (inactive); in the experiment with COLO 205, 1.52 µM (inactive). The GI50 is 0.316 µM (active) in the experiment on LOX IMVI and 2.48 µM (inactive) in the experiment with A549.
On to `CCOC(=O)CCn1ncc(Cl)c(Cl)c1=O`, for which the GI50 is 26.7 µM (inactive) in the experiment on SK-OV-3; 4.86 µM (inactive) in the experiment with KM12; 11.1 µM (inactive) in the experiment with IGROV-1; 5.98 µM (inactive) in the experiment with OVCAR-8; 11.9 µM (inactive) in the experiment on NCI-H460; 11.9 µM (inactive) in the experiment on HOP-92. Further, the GI50 with U-251 was 5.89 µM (inactive); in the experiment on CAKI-1 it was 6.18 µM (inactive); with NCI-H226 it was 10.9 µM (inactive); in the experiment on UACC-257, 11.2 µM (inactive); in the experiment with SF-268, 7.55 µM (inactive); with SF-539 it was 13.9 µM (inactive). Further, the GI50 with COLO 205 was 9.23 µM (inactive); with LOX IMVI, 8.53 µM (inactive); with A549 it was 15.6 µM (inactive).
For `COc1ccc(/C=c2/sc3n(c2=O)NC(c2ccc(Cl)cc2)NN=3)cc1` (stereo unspecified), the GI50 was > 100 µM (inactive) in the experiment with SK-OV-3; > 100 µM (inactive) in the experiment with KM12; > 100 µM (inactive) in the experiment with IGROV-1; > 100 µM (inactive) with OVCAR-8; > 100 µM (inactive) with NCI-H460; 46.2 µM (inactive) in the experiment with HOP-92. The GI50 with U-251, in the experiment on CAKI-1, in the experiment on NCI-H226, in the experiment on SF-268, in the experiment with SF-539 and in the experiment with COLO 205 was > 100 µM (inactive) throughout. Further, the GI50 in the experiment with LOX IMVI and with A549 was > 100 µM (inactive) throughout.
In the case of `O=C(O)Cn1c(=O)[nH]c(=O)c2c1ncn2Cc1ccccc1`, the GI50 in the experiment with SK-OV-3, in the experiment with KM12, in the experiment on OVCAR-8, in the experiment on NCI-H460, with HOP-92 and in the experiment on U-251 was > 100 µM (inactive) throughout. Besides, the GI50 with CAKI-1, in the experiment on NCI-H226, in the experiment with SF-268, with SF-539, in the experiment on COLO 205 and in the experiment with A549 was > 100 µM (inactive) in each case.
With `C=CCN1/C(=C2\SC(=S)N(c3ccc(C)cc3)C2=O)Sc2c1nc[nH]c2=O`, the GI50 with SK-OV-3 is > 100 µM (inactive); in the experiment on IGROV-1 it was 64.9 µM (inactive); in the experiment with OVCAR-8, > 100 µM (inactive); in the experiment on NCI-H460, > 100 µM (inactive); with HOP-92, > 100 µM (inactive); in the experiment on U-251, 79.8 µM (inactive). Besides, the GI50 is > 100 µM (inactive) in the experiment on CAKI-1; > 100 µM (inactive) in the experiment with NCI-H226; > 100 µM (inactive) with UACC-257; > 100 µM (inactive) in the experiment on SF-268; 48.3 µM (inactive) with SF-539; > 100 µM (inactive) in the experiment on COLO 205. Also, the GI50 was 33.9 µM (inactive) in the experiment on LOX IMVI and > 100 µM (inactive) in the experiment on A549.
With `O=C(c1ccccc1)C1OC12C(=O)Nc1ccccc12` (stereo unspecified), the GI50 is 35.6 µM (inactive) with SK-OV-3; 47.6 µM (inactive) in the experiment with IGROV-1; 32.5 µM (inactive) in the experiment on OVCAR-8; 41.7 µM (inactive) in the experiment with NCI-H460; 20.3 µM (inactive) in the experiment on HOP-92; 20.8 µM (inactive) with CAKI-1. Further, the GI50 with NCI-H226 was 33.4 µM (inactive); with UACC-257, 35.7 µM (inactive); in the experiment with SF-268, 59.8 µM (inactive); in the experiment on SF-539 it was 23.7 µM (inactive); in the experiment with COLO 205, 18 µM (inactive); in the experiment with LOX IMVI it was 45 µM (inactive). In addition, the GI50 with A549 is 46.7 µM (inactive).
Consider `Nc1nnc2c(-c3ccccc3)n[nH]c2n1`, for which the GI50 in the experiment on KM12 is 23.2 µM (inactive); with OVCAR-8, 49.7 µM (inactive); in the experiment with NCI-H460, 26.3 µM (inactive); in the experiment on HOP-92 it was 12.6 µM (inactive); in the experiment with CAKI-1 it was 17 µM (inactive); in the experiment with NCI-H226, 46 µM (inactive). Moreover, the GI50 is 50.7 µM (inactive) in the experiment with UACC-257; 17.1 µM (inactive) in the experiment on SF-268; 24.8 µM (inactive) with SF-539; 34.4 µM (inactive) in the experiment on COLO 205; 50.6 µM (inactive) with LOX IMVI; 23.5 µM (inactive) with A549.
On to `COc1nc(/C=N/NC(N)=S)nc(OC)n1`, for which the GI50 in the experiment on SK-OV-3 was > 100 µM (inactive); with KM12, > 100 µM (inactive); in the experiment on IGROV-1, > 100 µM (inactive); in the experiment with OVCAR-8, 56.9 µM (inactive); with NCI-H460 it was 43.5 µM (inactive); in the experiment on HOP-92, > 100 µM (inactive). In addition, the GI50 is 54.8 µM (inactive) in the experiment with U-251; 78.5 µM (inactive) with CAKI-1; 69.7 µM (inactive) in the experiment on NCI-H226; > 100 µM (inactive) in the experiment with UACC-257; 61.7 µM (inactive) with SF-268; 32.4 µM (inactive) with SF-539. In addition, the GI50 in the experiment with COLO 205 was > 100 µM (inactive); in the experiment with A549 it was 56.6 µM (inactive).
Turning to `Cc1nc(-c2nc(C)c(C(=O)NNC(=O)C[n+]3ccccc3)s2)sc1C(=O)NNC(=O)C[n+]1ccccc1`, the GI50 with SK-OV-3 was 87.5 µM (inactive); with KM12, > 100 µM (inactive); in the experiment with IGROV-1, 70.6 µM (inactive); in the experiment on OVCAR-8 it was > 100 µM (inactive); in the experiment on NCI-H460, > 100 µM (inactive); in the experiment with HOP-92, 27.5 µM (inactive). The GI50 was 79.4 µM (inactive) with U-251; 18.6 µM (inactive) in the experiment with CAKI-1; 39.5 µM (inactive) in the experiment on NCI-H226; 94.2 µM (inactive) in the experiment with UACC-257; 39.7 µM (inactive) with SF-268; 37.8 µM (inactive) in the experiment with SF-539. In addition, the GI50 in the experiment on COLO 205 was > 100 µM (inactive); in the experiment on LOX IMVI, 66.2 µM (inactive); in the experiment on A549, > 100 µM (inactive).
Take `c1ccc2c(CNCCCCCCCCNCc3cccc4ccccc34)cccc2c1`: the GI50 in the experiment on SK-OV-3 was 17.1 µM (inactive); in the experiment with KM12, 1.82 µM (inactive); in the experiment on IGROV-1, 4.55 µM (inactive); in the experiment with OVCAR-8, 1.86 µM (inactive); in the experiment on NCI-H460, 1.48 µM (inactive); with HOP-92, 2.49 µM (inactive). Further, the GI50 was 1.72 µM (inactive) in the experiment with U-251; 1.98 µM (inactive) in the experiment with CAKI-1; 11.7 µM (inactive) with NCI-H226; 1.87 µM (inactive) with UACC-257; 7.52 µM (inactive) with SF-268; 1.63 µM (inactive) in the experiment on SF-539. For the same compound, the GI50 was 1.96 µM (inactive) in the experiment on COLO 205, 1.23 µM (inactive) in the experiment on LOX IMVI and 2.2 µM (inactive) with A549.
